pIC50, pKi: −log10 of the molar value. Calls of active or inactive are those of the source. The rule behind the calls is not given here.
Key:
[1] = target: Amine oxidase [flavin-containing] A (Homo sapiens, UniProt P21397); assay: Inhibition of human recombinant MAO-A expressed in insect cells assessed as inhibition of 4-hydroxyquinoline formation using kynuramine as substrate incubated for 75 mins by spectrophotometric analysis; set-up: species or system Insect cell
[2] = target: T1, Alpha-1B adrenergic receptor (Homo sapiens, UniProt P35368); assay: Displacement of [3H] prazosin from human recombinant adrenergic alpha-1b receptor expressed in […] cells incubated for 60 mins by spectrophotometric analysis; format: cell-based
T1 sequence (P35368 whole entry): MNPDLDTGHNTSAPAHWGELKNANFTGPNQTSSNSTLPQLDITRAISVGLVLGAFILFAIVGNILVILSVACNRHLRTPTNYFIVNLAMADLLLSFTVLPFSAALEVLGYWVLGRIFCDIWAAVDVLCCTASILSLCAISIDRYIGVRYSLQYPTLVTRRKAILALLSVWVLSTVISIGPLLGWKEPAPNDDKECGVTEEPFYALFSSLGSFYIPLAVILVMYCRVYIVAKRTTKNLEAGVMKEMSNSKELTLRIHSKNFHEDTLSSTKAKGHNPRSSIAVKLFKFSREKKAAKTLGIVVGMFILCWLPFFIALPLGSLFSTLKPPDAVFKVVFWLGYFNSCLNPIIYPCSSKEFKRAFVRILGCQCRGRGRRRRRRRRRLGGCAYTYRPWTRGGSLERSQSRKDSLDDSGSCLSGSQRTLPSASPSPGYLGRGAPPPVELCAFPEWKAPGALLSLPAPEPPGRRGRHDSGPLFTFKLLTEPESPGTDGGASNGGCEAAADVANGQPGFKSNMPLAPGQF

[3] = target: T2, Alpha-2A adrenergic receptor (Homo sapiens, UniProt P08913); assay: Displacement of [3H]-rauwolscine from human recombinant adrenergic alpha-2A receptor expressed in CHO-K1 cells assessed as inhibition constant incubated for 60 mins by spectrophotometric analysis; format: cell-based
T2 sequence (P08913 whole entry): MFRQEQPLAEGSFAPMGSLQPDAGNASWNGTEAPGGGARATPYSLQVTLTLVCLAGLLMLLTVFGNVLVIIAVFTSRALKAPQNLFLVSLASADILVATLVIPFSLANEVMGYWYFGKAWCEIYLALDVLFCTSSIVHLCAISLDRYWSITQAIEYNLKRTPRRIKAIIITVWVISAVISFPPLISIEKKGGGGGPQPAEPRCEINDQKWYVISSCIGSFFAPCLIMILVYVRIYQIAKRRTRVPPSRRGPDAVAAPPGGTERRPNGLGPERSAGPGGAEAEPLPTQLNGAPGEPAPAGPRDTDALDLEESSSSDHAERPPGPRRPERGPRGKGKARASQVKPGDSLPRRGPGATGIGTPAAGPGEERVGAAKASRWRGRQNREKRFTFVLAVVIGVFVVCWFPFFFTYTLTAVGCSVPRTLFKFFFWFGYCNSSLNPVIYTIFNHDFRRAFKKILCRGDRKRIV

[4] = target: T3, Alpha-1A adrenergic receptor (Homo sapiens, UniProt P35348); assay: Displacement of [3H] prazosin from human recombinant adrenergic alpha-1a receptor expressed in […] cells incubated for 60 mins by spectrophotometric analysis; format: cell-based
T3 sequence (P35348 whole entry): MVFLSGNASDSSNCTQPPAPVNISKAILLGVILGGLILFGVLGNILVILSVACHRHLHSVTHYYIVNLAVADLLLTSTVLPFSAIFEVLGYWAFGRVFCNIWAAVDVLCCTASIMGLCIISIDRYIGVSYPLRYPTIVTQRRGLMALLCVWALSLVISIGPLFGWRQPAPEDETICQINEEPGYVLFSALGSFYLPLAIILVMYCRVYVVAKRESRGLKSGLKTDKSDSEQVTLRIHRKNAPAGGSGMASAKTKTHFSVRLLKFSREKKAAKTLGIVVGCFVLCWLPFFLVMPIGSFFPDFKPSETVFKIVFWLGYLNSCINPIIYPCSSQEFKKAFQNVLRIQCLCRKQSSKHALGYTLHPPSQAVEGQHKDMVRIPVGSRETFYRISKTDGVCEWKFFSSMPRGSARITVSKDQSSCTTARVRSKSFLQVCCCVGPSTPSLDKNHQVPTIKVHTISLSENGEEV

[5] = target: T4, Neuronal acetylcholine receptor; alpha3/beta4 (Homo sapiens, UniProt P30926+P32297); assay: Displacement of [125I]-epibatidine from human recombinant nAChR alpha3beta4 receptor expressed in CHO-K1 cells assessed as inhibition constant incubated for 60 mins by spectrophotometric analysis; format: cell-based
T4 sequence (P30926 whole entry): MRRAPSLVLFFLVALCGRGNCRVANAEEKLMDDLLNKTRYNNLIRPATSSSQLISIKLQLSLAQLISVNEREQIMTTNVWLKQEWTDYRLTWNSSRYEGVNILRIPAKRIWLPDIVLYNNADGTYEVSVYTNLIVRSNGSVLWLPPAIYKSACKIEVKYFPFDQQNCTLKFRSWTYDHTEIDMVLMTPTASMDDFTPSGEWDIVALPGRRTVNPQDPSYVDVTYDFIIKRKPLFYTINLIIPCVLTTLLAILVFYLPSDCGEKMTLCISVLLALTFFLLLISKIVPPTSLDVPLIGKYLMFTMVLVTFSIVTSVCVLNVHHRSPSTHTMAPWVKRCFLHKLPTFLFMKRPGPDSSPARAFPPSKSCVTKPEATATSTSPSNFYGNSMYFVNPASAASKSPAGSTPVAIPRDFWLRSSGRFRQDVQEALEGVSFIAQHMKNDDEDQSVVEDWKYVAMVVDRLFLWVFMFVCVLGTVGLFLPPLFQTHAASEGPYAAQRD
T4 sequence (P32297 whole entry): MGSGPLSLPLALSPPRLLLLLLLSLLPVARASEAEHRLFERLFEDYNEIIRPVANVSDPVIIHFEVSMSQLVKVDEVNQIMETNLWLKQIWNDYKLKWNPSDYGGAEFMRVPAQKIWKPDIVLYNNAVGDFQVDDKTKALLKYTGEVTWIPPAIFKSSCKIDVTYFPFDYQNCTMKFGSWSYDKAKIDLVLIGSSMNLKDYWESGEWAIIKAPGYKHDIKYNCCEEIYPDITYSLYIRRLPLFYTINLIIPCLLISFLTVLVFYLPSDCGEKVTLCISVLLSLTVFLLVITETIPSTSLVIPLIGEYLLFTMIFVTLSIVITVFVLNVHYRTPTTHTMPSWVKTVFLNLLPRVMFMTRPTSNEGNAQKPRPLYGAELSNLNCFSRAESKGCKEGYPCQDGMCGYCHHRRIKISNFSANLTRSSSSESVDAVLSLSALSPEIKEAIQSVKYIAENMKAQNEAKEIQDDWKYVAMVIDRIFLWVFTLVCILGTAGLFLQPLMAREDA

[6] = target: 5-hydroxytryptamine receptor 2A (Homo sapiens, UniProt P28223); assay: Displacement of [3H] ketanserin from human recombinant 5-HT2A receptor expressed in CHO-K1 cells incubated for 60 mins by spectrophotometric analysis
5-hydroxytryptamine receptor 2A, sequence (P28223 whole entry): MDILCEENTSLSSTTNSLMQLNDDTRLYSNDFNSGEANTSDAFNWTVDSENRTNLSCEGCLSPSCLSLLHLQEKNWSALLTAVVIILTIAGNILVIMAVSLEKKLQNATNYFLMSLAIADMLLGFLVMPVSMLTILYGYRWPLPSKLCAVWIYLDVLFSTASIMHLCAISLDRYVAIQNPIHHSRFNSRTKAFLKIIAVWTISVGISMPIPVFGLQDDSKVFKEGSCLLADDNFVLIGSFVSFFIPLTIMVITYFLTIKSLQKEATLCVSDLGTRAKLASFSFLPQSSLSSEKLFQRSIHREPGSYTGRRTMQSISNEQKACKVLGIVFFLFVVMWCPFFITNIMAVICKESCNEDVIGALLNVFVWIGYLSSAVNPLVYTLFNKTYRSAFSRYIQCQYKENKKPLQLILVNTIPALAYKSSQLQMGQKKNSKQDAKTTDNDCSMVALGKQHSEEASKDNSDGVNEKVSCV

[7] = target: 5-hydroxytryptamine receptor 1B (Homo sapiens, UniProt P28222); assay: Displacement of [3H] GR125743 from human recombinant 5-HT1B receptor expressed in […] cells incubated for 90 mins by spectrophotometric analysis; format: cell-based
5-hydroxytryptamine receptor 1B, sequence (P28222 whole entry): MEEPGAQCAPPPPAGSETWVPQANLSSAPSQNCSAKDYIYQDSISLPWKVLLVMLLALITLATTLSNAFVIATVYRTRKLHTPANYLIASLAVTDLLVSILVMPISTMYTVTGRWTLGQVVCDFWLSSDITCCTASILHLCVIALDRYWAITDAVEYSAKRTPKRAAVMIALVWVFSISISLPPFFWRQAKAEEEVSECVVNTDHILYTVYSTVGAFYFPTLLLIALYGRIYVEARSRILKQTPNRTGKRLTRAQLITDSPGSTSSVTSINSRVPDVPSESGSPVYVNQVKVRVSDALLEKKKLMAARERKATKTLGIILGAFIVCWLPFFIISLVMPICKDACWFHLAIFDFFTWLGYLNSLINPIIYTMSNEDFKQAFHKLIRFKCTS

[8] = Metabolic stability in human liver mitochondrial fraction assessed as mean half life measured per million cells incubated upto 60 mins by LC-MS/MS analysis; format: ADME, mitochondria, Mitochondria
[9] = target: 5-hydroxytryptamine receptor 6 (Homo sapiens, UniProt P50406); assay: Displacement of [3H] LSD from human recombinant 5-HT6 receptor expressed in human HeLa cells assessed as inhibition constant incubated for 120 mins by spectrophotometric analysis; format: cell-based
5-hydroxytryptamine receptor 6, sequence (P50406 whole entry): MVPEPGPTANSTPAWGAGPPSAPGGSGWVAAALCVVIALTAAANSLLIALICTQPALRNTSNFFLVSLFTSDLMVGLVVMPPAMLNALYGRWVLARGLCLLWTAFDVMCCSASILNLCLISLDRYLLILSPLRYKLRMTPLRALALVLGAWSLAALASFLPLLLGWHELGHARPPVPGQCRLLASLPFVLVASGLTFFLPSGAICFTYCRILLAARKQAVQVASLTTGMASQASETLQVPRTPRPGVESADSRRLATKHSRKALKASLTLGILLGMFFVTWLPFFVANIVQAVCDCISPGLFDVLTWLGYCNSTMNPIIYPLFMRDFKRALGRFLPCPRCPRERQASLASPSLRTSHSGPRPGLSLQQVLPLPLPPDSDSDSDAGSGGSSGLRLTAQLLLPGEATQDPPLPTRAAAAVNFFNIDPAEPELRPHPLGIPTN

[10] = target: T1, Alpha-1B adrenergic receptor; assay: Displacement of [3H] prazosin from human recombinant adrenergic alpha-1b receptor expressed in […] cells assessed as inhibition constant incubated for 60 mins by spectrophotometric analysis; format: cell-based
[11] = target: T5, 5-hydroxytryptamine receptor 7 (Homo sapiens, UniProt P34969); assay: Displacement of [3H] LSD from human recombinant 5-HT7 receptor expressed in CHO-K1 cells incubated for 120 mins by spectrophotometric analysis; format: cell-based
T5 sequence (P34969 whole entry): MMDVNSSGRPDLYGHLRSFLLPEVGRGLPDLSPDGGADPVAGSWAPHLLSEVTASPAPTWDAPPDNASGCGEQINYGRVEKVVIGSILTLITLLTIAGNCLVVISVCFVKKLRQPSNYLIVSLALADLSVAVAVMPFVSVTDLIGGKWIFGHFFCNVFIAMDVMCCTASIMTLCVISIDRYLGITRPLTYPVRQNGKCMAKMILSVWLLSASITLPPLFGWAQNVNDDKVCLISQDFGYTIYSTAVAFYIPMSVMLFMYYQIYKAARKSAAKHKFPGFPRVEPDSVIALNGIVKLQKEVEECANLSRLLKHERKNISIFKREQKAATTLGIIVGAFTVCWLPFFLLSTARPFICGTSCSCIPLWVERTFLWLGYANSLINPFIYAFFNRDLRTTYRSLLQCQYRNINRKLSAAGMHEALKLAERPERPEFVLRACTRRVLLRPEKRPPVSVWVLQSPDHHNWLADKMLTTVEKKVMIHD

[12] = target: Alpha-2B adrenergic receptor (Homo sapiens) (UniProt P18089); assay: Displacement of [3H]-rauwolscine from human recombinant adrenergic alpha-2b receptor expressed in […] cells at 10 uM incubated for 60 mins by […] relative to control; format: cell-based
Alpha-2B adrenergic receptor (Homo sapiens), sequence (P18089 whole entry): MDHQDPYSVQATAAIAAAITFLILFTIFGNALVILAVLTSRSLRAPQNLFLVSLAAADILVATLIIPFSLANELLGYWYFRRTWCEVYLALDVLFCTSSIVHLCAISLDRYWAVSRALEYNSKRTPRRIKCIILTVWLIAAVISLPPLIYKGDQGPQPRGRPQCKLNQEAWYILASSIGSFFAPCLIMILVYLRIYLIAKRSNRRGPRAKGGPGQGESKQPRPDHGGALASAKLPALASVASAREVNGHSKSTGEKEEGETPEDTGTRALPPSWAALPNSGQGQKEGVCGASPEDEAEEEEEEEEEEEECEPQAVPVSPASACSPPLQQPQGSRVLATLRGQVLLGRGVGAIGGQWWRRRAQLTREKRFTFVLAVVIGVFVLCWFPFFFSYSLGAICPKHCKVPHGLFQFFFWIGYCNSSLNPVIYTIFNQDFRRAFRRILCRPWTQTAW

[13] = target: Alpha-2C adrenergic receptor (Homo sapiens) (UniProt P18825); assay: Displacement of [3H]-rauwolscine from human recombinant adrenergic alpha-2c receptor expressed in CHO-K1 cells at 10 uM incubated for 60 mins by […] relative to control; format: cell-based
Alpha-2C adrenergic receptor (Homo sapiens), sequence (P18825 whole entry): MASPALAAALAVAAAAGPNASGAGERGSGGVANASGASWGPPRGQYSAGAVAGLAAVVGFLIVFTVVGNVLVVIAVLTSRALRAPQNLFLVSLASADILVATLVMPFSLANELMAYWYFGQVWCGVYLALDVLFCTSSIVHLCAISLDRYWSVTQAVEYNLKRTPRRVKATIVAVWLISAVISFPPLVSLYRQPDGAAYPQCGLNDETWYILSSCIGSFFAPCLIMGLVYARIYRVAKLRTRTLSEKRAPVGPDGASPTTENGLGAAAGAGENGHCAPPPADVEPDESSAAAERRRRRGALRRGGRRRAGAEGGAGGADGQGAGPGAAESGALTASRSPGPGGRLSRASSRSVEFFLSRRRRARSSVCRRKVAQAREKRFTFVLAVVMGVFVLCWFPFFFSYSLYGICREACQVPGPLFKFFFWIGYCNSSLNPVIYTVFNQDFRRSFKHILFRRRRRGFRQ

[14] = target: Sigma non-opioid intracellular receptor 1 (Homo sapiens) (UniProt Q99720); assay: Displacement of [3H] pentazocine from human sigma 1 receptor expressed in human Jurkat cells at <=10 uM incubated for 120 mins by spectrophotometric analysis; format: cell-based
Sigma non-opioid intracellular receptor 1 (Homo sapiens), sequence (Q99720 whole entry): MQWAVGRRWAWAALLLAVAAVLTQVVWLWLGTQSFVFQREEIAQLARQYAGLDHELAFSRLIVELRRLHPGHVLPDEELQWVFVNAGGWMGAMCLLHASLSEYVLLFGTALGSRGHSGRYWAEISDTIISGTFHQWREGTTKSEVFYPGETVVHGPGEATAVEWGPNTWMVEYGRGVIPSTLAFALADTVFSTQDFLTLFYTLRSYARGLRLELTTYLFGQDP

[15] = target: T5, 5-hydroxytryptamine receptor 7; assay: Displacement of [3H] LSD from human recombinant 5-HT7 receptor expressed in CHO-K1 cells at 10 uM incubated for 120 mins by spectrophotometric analysis relative to control; format: cell-based
[16] = target: T4, Neuronal acetylcholine receptor; alpha3/beta4; assay: Displacement of [125I]-epibatidine from human recombinant nAChR alpha3beta4 receptor expressed in CHO-K1 cells at 10 uM incubated for 60 mins by spectrophotometric analysis relative to control; format: cell-based

Amine oxidase [flavin-containing] A, sequence (P21397 whole entry): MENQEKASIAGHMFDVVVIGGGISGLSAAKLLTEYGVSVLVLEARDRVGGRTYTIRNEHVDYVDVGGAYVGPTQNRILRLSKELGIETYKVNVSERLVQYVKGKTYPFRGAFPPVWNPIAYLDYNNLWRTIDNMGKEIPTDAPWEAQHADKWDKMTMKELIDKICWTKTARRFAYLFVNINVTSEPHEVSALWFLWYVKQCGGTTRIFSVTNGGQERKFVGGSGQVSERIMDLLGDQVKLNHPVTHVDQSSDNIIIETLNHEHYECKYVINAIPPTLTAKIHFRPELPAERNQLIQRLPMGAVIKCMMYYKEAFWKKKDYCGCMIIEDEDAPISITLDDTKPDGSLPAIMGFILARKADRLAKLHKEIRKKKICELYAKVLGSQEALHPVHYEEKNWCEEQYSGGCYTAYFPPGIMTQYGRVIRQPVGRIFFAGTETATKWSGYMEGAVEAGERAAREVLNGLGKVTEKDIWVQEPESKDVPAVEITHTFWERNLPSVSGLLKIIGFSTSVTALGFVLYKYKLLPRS

Row | SMILES | pIC50 [1] | pIC50 [2] | pKi [3] | pIC50 [4] | pKi [5] | pIC50 [6] | pIC50 [7] | half-life [8] [min] | pKi [9] | pKi [10] | pIC50 [11] | further results
1 | O=C(O)/C=C/C(=O)O.[2H]C([2H])(Cc1c[nH]c2ccccc12)N(C)C | 5.82 | 6.03 | 5.82 | 6.00 | 5.50 | 6.66 | 5.70 | 85.1 | 6.30 | 6.43 | 7.05 | 
2 | CN(C)CCc1c[nH]c2ccccc12.O=C(O)/C=C/C(=O)O | 5.93 | 6.17 | 5.95 | 6.24 | 5.52 | 6.82 | 5.62 | 8.3 | 6.25 | 6.59 | 6.92 | inhibition [12]: 81.1%; inhibition ([12]; tested as the 2H-labelled form): 79.8%; inhibition [13]: 58.4%; inhibition ([13]; tested as the 2H-labelled form): 57.6%; inhibition [14]: inactive; inhibition ([14]; tested as the 2H-labelled form): inactive; inhibition [15]: 90.4%; inhibition ([15]; tested as the 2H-labelled form): 95.5%; inhibition [16]: 64.6%; inhibition ([16]; tested as the 2H-labelled form): 63.5%

From ChEMBL document CHEMBL5370593, “Discovery and In Vitro Characterization of SPL028: Deuterated N,N-Dimethyltryptamine” (ACS Med Chem Lett, 2023)
